Reference: patent US10227331B2 (priority 2015, dated 2019)

How the values were obtained:
IMP-1 = IMP-1 (Serratia marcescens, UniProt P52699); assay: biochemical; type: biochemical; conditions: CCF2-FA substrate, 2 hours at 25° C; read-out: IMP-1 IC50
Procedure: (§1) Enzyme Activity: Determination of IC50
(§2) The Class B enzyme activities were measured in the presence of the test inhibitor in a fluorescence assay against a commercially available substrate consisting of a cephalosporin core linking 7-hydroxycoumarin to fluorescein (CCF2-FA). […] In a 384-well microplate, the test inhibitor was incubated with the metallo-β-lactamase enzyme and the substrate for 2 hours at 25° C. […] The IC50 value was determined from semi-logarithmic plots of enzyme inhibition versus inhibitor concentration, with a curve generated using a 4-parameter fit.

NDM-1 = NDM-1 (Klebsiella pneumoniae, UniProt C7C422); assay: biochemical; type: biochemical; conditions: CCF2-FA substrate, 2 hours at 25° C; read-out: NDM-1 IC50
Procedure: as §1, §2

[1] = system: P. aeruginosa expressing IMP-1, efflux+ (MB9798); type: cell-based, Pseudomonas aeruginosa; conditions: for P. aeruginosa expressing IMP-1, efflux+ (MB9798) MITC95: imipenem at 2 μg/mL, in the presence of a class A, C, D serine β-lactamase inhibitor closely related to relebactam; for Efflux ratio: ratio MITC95 PA_9798/MITC95 PA_9799
Source text: (§3) The strain background is Pseudomonas aeruginosa PAO1.

[2] = system: Serratia marcescens expressing IMP-1 (CL5741); type: cell-based; conditions: with imipenem 1 μg/ml; 95% inhibition of bacterial growth
Procedure: (§4) Antibiotic Potentiation Activity: Determination of Synergistic Concentration
(§5) The bacterial strains tested included the clinical strains Escherichia coli expressing NDM-1 (CLB30005, CLB30016), Serratia marcescens expressing IMP-1 (CL5741), and Klebsiella pneumoniae expressing VIM-1 (IHMA599644). Inhibitor activity was measured in the presence and absence of imipenem in a 384-well microplate.
(§6) The clinical strains CLB30016, CL5741 and IHMA599644 were grown on trypticase soy agar containing 5% sheep's blood. The bacteria on agar plates were incubated at 35° C. with humidity overnight. The following day, individual colonies from each clinical strain were picked and resuspended in 5 ml saline to attain an OD600 of […], for CLB30016, CL5741 and IHMA599644, respectively. These were further diluted 1:100 into 1.1×CAMHB and used to inoculate the test wells as described below.
(§7) Imipenem in 10 mM 3-(N-morpholino)propanesulfonic acid (MOPS, pH 7) was stored in single use aliquots at −80° C. […] On the day of the assay, 4 μl of antibiotic was added to 45 ul of bacteria followed by 1 μl of test compound and mixed by pipetting and with an orbital shaker. The concentration of antibiotic used in the assay was 1 μg/ml. Microplates were covered and incubated at 35° C. for 22 hours to 24 hours. At the end of the incubation, absorbance was determined using a spectrophotometer.
(§8) For example, in general, the compounds of Examples 1-379 were determined to restore susceptibility to imipenem for one or more of the test organisms at concentrations of 100 μM or less.

[3] = system: Escherichia coli expressing NDM-1 (CLB30005, CLB30016); type: cell-based; conditions: with imipenem 1 μg/ml; 95% inhibition of bacterial growth
Procedure: as §4, §5, §6, §7, §8

[4] = system: Klebsiella pneumoniae expressing VIM-1 (IHMA599644); type: cell-based; conditions: with imipenem 1 μg/ml; 95% inhibition of bacterial growth
Procedure: as §4, §5, §6, §7, §8

[5] = system: P. aeruginosa expressing IMP-1, efflux− (MB9799); assay: Efflux: concentration of MBL inhibitor which restores susceptibility to imipenem; type: cell-based, Pseudomonas aeruginosa; conditions: imipenem at 2 μg/mL, in the presence of a class A, C, D serine β-lactamase inhibitor closely related to relebactam
Source text: as §3

VIM-1 = VIM-1 (Pseudomonas aeruginosa (strain ATCC 15692 / DSM 22644 / CIP 104116 / JCM 14847 / LMG 12228 / 1C / PRS 101 / PAO1), UniProt A0A0F7KYQ8); assay: biochemical; conditions: CCF2-FA substrate, 2 hours at 25° C
Procedure: as §1, §2

NDM-1, sequence (C7C422 whole entry, looked up, species assumed): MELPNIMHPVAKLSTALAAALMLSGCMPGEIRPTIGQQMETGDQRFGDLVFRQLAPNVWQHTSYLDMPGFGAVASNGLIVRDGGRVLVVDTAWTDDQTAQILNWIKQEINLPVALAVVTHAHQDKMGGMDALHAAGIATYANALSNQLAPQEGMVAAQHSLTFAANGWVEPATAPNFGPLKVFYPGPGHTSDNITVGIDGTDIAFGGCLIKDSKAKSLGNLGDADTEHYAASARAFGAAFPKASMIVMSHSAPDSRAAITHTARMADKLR
IMP-1, sequence (P52699 whole entry, looked up, species assumed): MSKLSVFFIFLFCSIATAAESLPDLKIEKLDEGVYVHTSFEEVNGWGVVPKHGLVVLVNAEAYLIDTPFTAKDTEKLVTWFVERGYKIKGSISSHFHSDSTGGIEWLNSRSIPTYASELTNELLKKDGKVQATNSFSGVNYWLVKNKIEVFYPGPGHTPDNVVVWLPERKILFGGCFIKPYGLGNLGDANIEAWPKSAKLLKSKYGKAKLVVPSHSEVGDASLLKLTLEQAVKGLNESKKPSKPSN

Compound | IC50 (IMP-1) | IC50 (NDM-1) | P. aeruginosa expressing IMP-1, efflux+ (MB9798) MITC95 [1] | Efflux ratio [1] | Serratia marcescens expressing IMP-1 (CL5741) MITC95 [2] | Escherichia coli expressing NDM-1 (CLB30016) MITC95 [3] | Klebsiella pneumoniae expressing VIM-1 (IHMA599644) MITC95 [4] | P. aeruginosa expressing IMP-1, efflux− (MB9799) MITC95 [5] | IC50 (VIM-1)
NS(=O)(=O)c1c(S(=O)(=O)C2CNC2)ccc(-c2cnc3ccccn23)c1-c1nn[nH]n1 [Example 9, 6-(Azetidin-3-ylsulfonyl)-3-(imidazo[1,2-a]pyridin-3-yl)-2-(2H-tetrazol-5-yl)benzenesulfonamide] | 0.913 nM | 0.332 nM | 6.25 µM | 4.00 | 1.563 µM | 0.7813 µM | 3.125 µM | 1.563 µM | 0.375 nM
Nc1ccc(-c2ccc([S+]([O-])C3CCNCC3)c(S(N)(=O)=O)c2-c2nn[nH]n2)cn1 (stereo not drawn) [Example 10, 3-(6-aminopyridin-3-yl)-6-(piperidin-4-ylsulfinyl)-2-(2H-tetrazol-5-yl)benzenesulfonamide] | 27.3 nM | 3.2 nM | 6.25 µM | 2.00 | 6.25 µM | 6.25 µM | 6.25 µM | 3.125 µM | 6.46 nM
Nc1nc2ccc(-c3ccc([S+]([O-])C4CCNCC4)c(S(N)(=O)=O)c3-c3nn[nH]n3)cc2[nH]1 (stereo not drawn) [Example 12, 3-(2-amino-3H-benzo[d]imidazol-5-yl)-6-(piperidin-4-ylsulfinyl)-2-(2H-tetrazol-5-yl)benzenesulfonamide] | 130 nM | 4.06 nM | 25 µM | 8.00 | 6.25 µM | 6.25 µM | 6.25 µM | 3.125 µM | 4.36 nM
Nc1nc2c(-c3ccc([S+]([O-])C4CNC4)c(S(N)(=O)=O)c3-c3nn[nH]n3)cccc2[nH]1 (stereo not drawn) [Example 13, 3-(2-amino-1H-benzo[d]imidazol-4-yl)-6-(azetidin-3-ylsulfinyl)-2-(2H-tetrazol-5-yl)benzenesulfonamide] | 50.8 nM | 0.619 nM | 6.25 µM | 4.00 | 3.125 µM | 0.3906 µM | 1.563 µM | 1.563 µM | 6.61 nM
Nc1nc2cccc(-c3ccc([S+]([O-])C4CCNCC4)c(S(N)(=O)=O)c3-c3nn[nH]n3)c2[nH]1 (stereo not drawn) [Example 14, 3-(2-amino-3H-benzo[d]imidazol-4-yl)-6-(piperidin-4-ylsulfinyl)-2-(2H-tetrazol-5-yl)benzenesulfonamide] | 23.9 nM | 0.292 nM | 6.25 µM | 4.00 | 3.125 µM | 6.25 µM | 3.125 µM | 1.563 µM | 0.868 nM
Cc1ccc(-c2ccc(S(=O)(=O)C3CNC3)c(S(N)(=O)=O)c2-c2nn[nH]n2)c2nc(N)[nH]c12 [Example 15, 3-(2-Amino-7-methyl-1H-benzo[d]imidazol-4-yl)-6-(azetidin-3-ylsulfonyl)-2-(2H-tetrazol-5-yl)benzenesulfonamide] | 0.613 nM | 0.0897 nM | 0.3906 µM | 1.00 | 0.3906 µM | 0.3906 µM | 0.7813 µM | 0.3906 µM | 0.206 nM
